The record followed here is patent publication US20210078988A1, “MODULATORS OF INDOLEAMINE 2,3-DIOXYGENASE” (GLAXOSMITHKLINE INTELLECTUAL PROPERTY DEVELOPMENT LIMITED, priority 2017, published 2021).

For the experiment, the target named is T1, indoleamine 2, 3-dioxygenase (IDO1) (Homo sapiens, UniProt P14902).
T1 construct: human peripheral blood mononuclear cells (PBMC) (PB003F; host or cells: human PBMC stimulated with IFN-gamma and LPS
T1 sequence (P14902 whole entry): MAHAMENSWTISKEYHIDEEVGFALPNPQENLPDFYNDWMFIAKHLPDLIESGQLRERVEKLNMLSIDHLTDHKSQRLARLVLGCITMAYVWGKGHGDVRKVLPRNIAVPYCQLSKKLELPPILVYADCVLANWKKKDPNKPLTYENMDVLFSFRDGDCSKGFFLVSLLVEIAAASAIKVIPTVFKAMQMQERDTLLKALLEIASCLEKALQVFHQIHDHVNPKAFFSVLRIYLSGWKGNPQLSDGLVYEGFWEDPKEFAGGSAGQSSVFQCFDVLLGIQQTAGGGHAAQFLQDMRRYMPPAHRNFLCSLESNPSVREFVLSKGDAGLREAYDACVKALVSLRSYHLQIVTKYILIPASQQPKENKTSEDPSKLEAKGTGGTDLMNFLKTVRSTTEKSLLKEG
In words: PBMC IDO1 assay (kynurenine detection via mass spectrometry). The format is cell-based. Conditions: human PBMC stimulated with IFN-γ and LPS, 2 days, kynurenine by mass spectrometry; read-out: IDO1 PBMC pIC50 (converted). As for the experimental part: Compounds of the present invention were tested via high-throughput cellular assays utilizing detection of kynurenine via mass spectrometry and cytotoxicity as end-points. For the mass spectrometry and cytotoxicity assays, human peripheral blood mononuclear cells (PBMC) (PB003F; AIICells®, Alameda, Calif.) were stimulated with human interferon-γ (IFN-γ) (Sigma-Aldrich Corporation, St. Louis, Mo.) and lipopolysaccharide from Salmonella minnesota (LPS) (Invivogen, San Diego, Calif.) to induce the expression of indoleamine 2, 3-dioxygenase (IDO1). Compounds with IDO1 inhibitory properties decreased the amount of kynurenine produced by the cells via the tryptophan catabolic pathway. Cellular toxicity due to the effect of compound treatment was measured using CellTiter-Glo® reagent (CTG) (Promega Corporation, Madison, Wis.), which is based on luminescent detection of ATP, an indicator of metabolically active cells.
In preparation for the assays, test compounds were serially diluted 3-fold in DMSO from a typical top concentration of 5 mM and plated at 0.5 μL in 384-well, polystyrene, clear bottom, tissue culture treated plates with lids (Greiner Bio-One, Kremsmunster, Austria) to generate 11-point dose response curves. Low control wells (0% kynurenine or 100% cytotoxicity) contained either 0.5 μL of DMSO in the presence of unstimulated (-IFN-γ/-LPS) PBMCs for the mass spectrometry assay or 0.5 μL of DMSO in the absence of cells for the cytotoxicity assay, and high control wells (100% kynurenine or 0% cytotoxicity) contained 0.5 μL of DMSO in the presence of stimulated (+IFN-γ/+LPS) PBMCs for both the mass spectrometry and cytotoxicity assays.
Frozen stocks of PBMCs were washed and recovered in RPMI 1640 medium (Thermo Fisher Scientific, Inc., Waltham, Mass.) supplemented with 10% v/v heat-inactivated fetal bovine serum (FBS) (Thermo Fisher Scientific, Inc., Waltham, Mass.), and 1× penicillin-streptomycin antibiotic solution (Thermo Fisher Scientific, Inc., Waltham, Mass.). The cells were diluted to 1,000,000 cells/mL in the supplemented RPMI 1640 medium. 50 μL of either the cell suspension, for the mass spectrometry assay, or medium alone, for the cytotoxicity assay, were added to the low control wells, on the previously prepared 384-well compound plates, resulting in 50,000 cells/well or 0 cells/well respectively. IFN-γ and LPS were added to the remaining cell suspension at final concentrations of 100 ng/ml and 50 ng/ml respectively, and 50 μL of the stimulated cells were added to all remaining wells on the 384-well compound plates. The plates, with lids, were then placed in a 37° C., 5% CO2 humidified incubator for 2 days.
Following incubation, the 384-well plates were removed from the incubator and allowed to equilibrate to room temperature for 30 minutes. For the cytotoxicity assay, CellTiter-Glo® was prepared according to the manufacturer's instructions, and 40 μL were added to each plate well. After a twenty minute incubation at room temperature, luminescence was read on an EnVision® Multilabel Reader (PerkinElmer Inc., Waltham, Mass.). For the mass spectrometry assay, 10 μL of supernatant from each well of the compound-treated plates were added to 40 μL of acetonitrile, containing 10 μM of an internal standard for normalization, in 384-well, polypropylene, V-bottom plates (Greiner Bio-One, Kremsmunster, Austria) to extract the organic analytes. Following centrifugation at 2000 rpm for 10 minutes, 10 μL from each well of the acetonitrile extraction plates were added to 90 μL of sterile, distilled H2O in 384-well, polypropylene, V-bottom plates for analysis of kynurenine and the internal standard on the RapidFire 300 (Agilent Technologies, Santa Clara, Calif.) and 4000 QTRAP MS (SCIEX, Framingham, Mass.). MS data were integrated using Agilent Technologies' RapidFire Integrator software, and data were normalized for analysis as a ratio of kynurenine to the internal standard. […]
`CCc1ccc(C(=O)NC(CC2CCN(C(=O)OC(C)(C)C)CC2)c2ccccc2)s1` (stereo not drawn) [Example 1, tert-butyl 4-(2-(5-ethylthiophene-2-carboxamido)-2-phenylethyl)piperidine-1-carboxylate]: the IC50 was 7.94 nM.
Regarding `CC(C)(C)OC(=O)N1CCC(CC(NC(=O)c2ccc(Br)s2)c2ccccc2)CC1` (stereo not drawn) [Example 2, tert-butyl 4-(2-(5-bromothiophene-2-carboxamido)-2-phenylethyl)piperidine-1-carboxylate], the IC50 was 7.94 nM.
Then `CC(C)(C)OC(=O)N1CCC(CC(NC(=O)c2ccc(Cl)s2)c2ccccc2)CC1` (stereo not drawn) [Example 3, tert-butyl 4-(2-(5-chlorothiophene-2-carboxamido)-2-phenylethyl)piperidine-1-carboxylate], with 10 nM; and `C#Cc1ccc(C(=O)NC(CC2CCN(C(=O)OC(C)(C)C)CC2)c2ccccc2)s1` (stereo not drawn) [Example 4, tert-butyl 4-(2-(5-ethynylthiophene-2-carboxamido)-2-phenylethyl)piperidine-1-carboxylate], with 3.98 nM.
The same measure for `C#Cc1ccc(C(=O)NC(CC2CCN(C(=O)OC(C)(C)C)CC2)c2ccccc2)cc1` (stereo not drawn) [Example 5, tert-butyl 4-(2-(4-ethynylbenzamido)-2-phenylethyl)piperidine-1-carboxylate]: 7.94 nM.
Take `C#Cc1ccc(C(=O)NC(CC2CCN(C(=O)OC(C)(C)C)CC2)c2ccccc2)cc1F` (stereo not drawn) [Example 6, tert-butyl 4-(2-(4-ethynyl-3-fluorobenzamido)-2-phenylethyl)piperidine-1-carboxylate]: the IC50 is 10 nM.
As for `CCOC(=O)N1CCC(CC(NC(=O)c2ccc(Cl)s2)C2CC2)CC1` (stereo not drawn) [Example 7, ethyl 4-(2-(5-chlorothiophene-2-carboxamido)-2-cyclopropylethyl)piperidine-1-carboxylate], the IC50 was 6.31 nM.
With `CC(C)(C)OC(=O)N1CCC(C[C@H](NC(=O)c2ccc(Cl)s2)C2CC2)CC1` [Example 8, (S)-tert-butyl 4-(2-(5-chlorothiophene-2-carboxamido)-2-cyclopropylethyl)piperidine-1-carboxylate], the IC50 is 6.31 nM.
On to `Cc1ccc(C(=O)N[C@@H](CC2CCN(C(=O)OC(C)(C)C)CC2)C2CC2)s1` [Example 9, (S)-tert-butyl 4-(2-cyclopropyl-2-(5-methylthiophene-2-carboxamido)ethyl)piperidine-1-carboxylate], for which the IC50 was 5.01 nM.
As to `CCc1ccc(C(=O)N[C@@H](CC2CCN(C(=O)OC(C)(C)C)CC2)C2CC2)s1` [Example 10, (S)-tert-butyl 4-(2-cyclopropyl-2-(5-ethylthiophene-2-carboxamido)ethyl)piperidine-1-carboxylate], the IC50 is 5.01 nM.
With `CCOC(=O)N1CCC(C[C@H](NC(=O)c2ccc(C)s2)C2CC2)CC1` [Example 11, (S)-ethyl 4-(2-cyclopropyl-2-(5-methylthiophene-2-carboxamido)ethyl)piperidine-1-carboxylate], the IC50 was 5.01 nM.
In the case of `CCOC(=O)N1CCC(C[C@H](NC(=O)c2ccc(Cl)s2)C2CC2)CC1` [Example 12, ethyl (S)-4-(2-(5-chlorothiophene-2-carboxamido)-2-cyclopropylethyl)piperidine-1-carboxylate], the IC50 is 3.16 nM.
Turning to `COC(=O)N1CCC(C[C@H](NC(=O)c2ccc(Cl)s2)C2CC2)CC1` [Example 13, (S)-methyl 4-(2-(5-chlorothiophene-2-carboxamido)-2-cyclopropylethyl)piperidine-1-carboxylate], the IC50 is 7.94 nM.
Consider `CC(C)OC(=O)N1CCC(C[C@H](NC(=O)c2ccc(Cl)s2)C2CC2)CC1` [Example 14, isopropyl (S)-4-(2-(5-chlorothiophene-2-carboxamido)-2-cyclopropylethyl)piperidine-1-carboxylate], for which the IC50 is 3.98 nM.
Then `COc1ccc(C(CC2CCN(C(=O)OC(C)(C)C)CC2)NC(=O)c2ccc(Cl)s2)cn1` (stereo not drawn) [Example 15, tert-butyl 4-(2-(5-chlorothiophene-2-carboxamido)-2-(6-methoxypyridin-3-yl)ethyl)piperidine-1-carboxylate], with 3.98 nM.
